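Test compounds were applied to cells in 96-well plates for 48 hours at 5 doses. GI50 marks 50% less growth.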 Calls of active or inactive are those of the source. Rule as the data show it: active = GI50 up to about 1.1 µM and inactive = higher.

Test systems include ACHN; CAKI-1; EKVX; HOP-92; K562; KM12; LOX IMVI; NCI-H226; NCI-H460; OVCAR-3; OVCAR-8; RPMI-8226; RXF 393; SF-295; SK-OV-3; SNB-19; SR; SW-620; UO-31.
What all share (experiment): growth of human tumour cells (NCI), 48 h

Take `O=C1C(C(O)(C(F)(F)F)C(F)(F)F)CCC1C(O)(C(F)(F)F)C(F)(F)F` (centres undefined): the GI50 is 1.8 µM (inactive) with ACHN; 0.341 µM (active) in the experiment with CAKI-1; 8.13 µM (inactive) in the experiment with EKVX; < 0.01 µM (active) with HOP-92; 3.64 µM (inactive) in the experiment with K562; 0.946 µM (active) in the experiment with KM12. Also, the GI50 with LOX IMVI is 0.594 µM (active); with NCI-H226, 0.33 µM (active); in the experiment on NCI-H460, 8.83 µM (inactive); in the experiment with OVCAR-3, 0.918 µM (active); in the experiment with OVCAR-8, 8.75 µM (inactive); with RPMI-8226 it was 0.142 µM (active). For the same compound, the GI50 in the experiment on RXF 393 is 0.346 µM (active); in the experiment on SF-295 it was 0.849 µM (active); in the experiment with SK-OV-3 it was 23 µM (inactive); with SNB-19, 17.9 µM (inactive); in the experiment on SR it was 0.215 µM (active); with SW-620, 5.89 µM (inactive). Besides, the GI50 with UO-31 is 1.09 µM (active).
In the case of `c1ccc(-c2sc(-c3cccs3)cc2Cc2cccs2)cc1`, the GI50 in the experiment with ACHN, with CAKI-1, in the experiment on EKVX, in the experiment with HOP-92, in the experiment with K562 and in the experiment with KM12 was > 10 µM (inactive) each time. For the same compound, the GI50 in the experiment on LOX IMVI, with NCI-H226, in the experiment on NCI-H460, in the experiment with OVCAR-8, in the experiment with RPMI-8226 and with RXF 393 was > 10 µM (inactive) throughout. The GI50 in the experiment with SF-295, with SK-OV-3, in the experiment on SNB-19, in the experiment on SR, in the experiment with SW-620 and in the experiment on UO-31 was > 10 µM (inactive) in each case.
On to `Cc1nnc2ccccc2c1O`, for which the GI50 is > 100 µM (inactive) in the experiment on ACHN; > 100 µM (inactive) with CAKI-1; > 100 µM (inactive) in the experiment with EKVX; > 100 µM (inactive) in the experiment on HOP-92; 2.52 µM (inactive) with K562; > 100 µM (inactive) in the experiment on KM12. Also, the GI50 in the experiment on LOX IMVI, with NCI-H226, in the experiment on NCI-H460, in the experiment on OVCAR-3, in the experiment on OVCAR-8 and in the experiment on RPMI-8226 was > 100 µM (inactive) each time. The GI50 was > 100 µM (inactive) with RXF 393; > 100 µM (inactive) with SF-295; > 100 µM (inactive) in the experiment with SK-OV-3; > 100 µM (inactive) with SNB-19; 25.9 µM (inactive) in the experiment on SR; > 100 µM (inactive) with SW-620. The GI50 with UO-31 was > 100 µM (inactive).
On to `CC1=NN(C(=O)c2ccncc2)C(=O)C1/N=N/c1ccc2ccccc2c1` (centres undefined), for which the GI50 in the experiment with ACHN was > 100 µM (inactive); with CAKI-1, > 100 µM (inactive); in the experiment with EKVX it was 2.71 µM (inactive); with HOP-92, > 100 µM (inactive); with K562, 5.46 µM (inactive); in the experiment on KM12, 17.1 µM (inactive). The GI50 with LOX IMVI is 30.1 µM (inactive); in the experiment with NCI-H226, > 100 µM (inactive); in the experiment on NCI-H460, 21.5 µM (inactive); with OVCAR-3, 28.1 µM (inactive); in the experiment on OVCAR-8, > 100 µM (inactive); with RPMI-8226, > 50.6 µM (inactive). The GI50 in the experiment on RXF 393 is > 100 µM (inactive); with SF-295, 91 µM (inactive); in the experiment with SK-OV-3, > 100 µM (inactive); with SNB-19, > 100 µM (inactive); in the experiment on SR, 5.3 µM (inactive); in the experiment with SW-620 it was 38.7 µM (inactive). Moreover, the GI50 in the experiment on UO-31 is > 100 µM (inactive).
In the case of `O=C(NC/C(Cl)=C/Cl)Nc1c2ccccc2nc2ccccc12`, the GI50 is 80.5 µM (inactive) in the experiment with ACHN; > 100 µM (inactive) with CAKI-1; > 100 µM (inactive) with EKVX; 41.6 µM (inactive) with HOP-92; > 100 µM (inactive) in the experiment with KM12; 61.2 µM (inactive) in the experiment with LOX IMVI. Also, the GI50 with NCI-H226 is 31.8 µM (inactive); in the experiment on NCI-H460, 60.3 µM (inactive); in the experiment with OVCAR-3, 44.5 µM (inactive); in the experiment on OVCAR-8, 56.4 µM (inactive); with RPMI-8226, 53.3 µM (inactive); in the experiment with RXF 393, > 100 µM (inactive). Besides, the GI50 was > 100 µM (inactive) in the experiment on SF-295; > 100 µM (inactive) in the experiment with SK-OV-3; > 100 µM (inactive) in the experiment with SNB-19; 20.5 µM (inactive) in the experiment with SR; > 100 µM (inactive) with SW-620; > 100 µM (inactive) in the experiment on UO-31.
Take `Cc1cc(S(=O)(=O)Nc2nnc3c4ccccc4cnn23)c(S)cc1Cl`: the GI50 in the experiment with ACHN was > 100 µM (inactive); in the experiment with CAKI-1 it was > 100 µM (inactive); with EKVX it was 44 µM (inactive); in the experiment with HOP-92 it was > 49.9 µM (inactive); with K562, > 100 µM (inactive); with KM12, 31.7 µM (inactive). The GI50 was > 100 µM (inactive) in the experiment on LOX IMVI; 24.1 µM (inactive) with NCI-H226; 31.3 µM (inactive) with NCI-H460; > 86.3 µM (inactive) in the experiment with OVCAR-3; > 100 µM (inactive) with OVCAR-8; > 100 µM (inactive) with RPMI-8226. Besides, the GI50 is > 100 µM (inactive) in the experiment on RXF 393; 47.5 µM (inactive) in the experiment with SF-295; 34.7 µM (inactive) in the experiment on SK-OV-3; 26.5 µM (inactive) in the experiment with SNB-19; > 100 µM (inactive) in the experiment on SR; > 100 µM (inactive) in the experiment with SW-620. In addition, in the experiment with UO-31, the GI50 is > 91.2 µM (inactive).
Turning to `CN(C)CC1CN(C(=O)Nc2ccccc2)C(=N)O1` (centres undefined), the GI50 with ACHN, in the experiment with CAKI-1, with EKVX, with HOP-92, with K562 and in the experiment on KM12 was > 100 µM (inactive) throughout. Besides, the GI50 in the experiment with LOX IMVI, in the experiment with NCI-H226, in the experiment on NCI-H460, in the experiment with OVCAR-3, in the experiment on OVCAR-8 and in the experiment with RPMI-8226 was > 100 µM (inactive) each time. Also, the GI50 in the experiment with RXF 393, with SF-295, with SK-OV-3, with SNB-19, in the experiment on SR and in the experiment on SW-620 was > 100 µM (inactive) in each case. The GI50 in the experiment on UO-31 was > 100 µM (inactive).
Consider `COc1ccc(OC)c(NC(=O)C(=O)Nn2c(S)nc3ccccc3c2=O)c1`, for which the GI50 with ACHN was > 100 µM (inactive); in the experiment with CAKI-1, > 100 µM (inactive); in the experiment with EKVX, 82.2 µM (inactive); with HOP-92 it was > 100 µM (inactive); in the experiment on K562 it was > 100 µM (inactive); with KM12 it was > 100 µM (inactive). The GI50 in the experiment on LOX IMVI, with NCI-H226, with NCI-H460, with OVCAR-3, with OVCAR-8 and with RPMI-8226 was > 100 µM (inactive) each time. Moreover, the GI50 in the experiment with RXF 393, in the experiment on SF-295, with SK-OV-3, in the experiment on SNB-19, in the experiment with SR and in the experiment with SW-620 was > 100 µM (inactive) each time. Moreover, the GI50 in the experiment on UO-31 is > 100 µM (inactive).
Take `COc1ccc2c(c1)CN1C(=N2)CSC1c1c(Cl)cccc1[N+](=O)[O-]` (centres undefined): the GI50 in the experiment with ACHN is 30.5 µM (inactive); in the experiment on CAKI-1, 23.1 µM (inactive); with EKVX it was 25.4 µM (inactive); in the experiment on HOP-92 it was 16.7 µM (inactive); in the experiment on K562 it was 13.6 µM (inactive); with KM12, 19.5 µM (inactive). In addition, the GI50 in the experiment on LOX IMVI is 18.5 µM (inactive); in the experiment with NCI-H226, 11.9 µM (inactive); with NCI-H460, 14.7 µM (inactive); in the experiment on OVCAR-8, 30.1 µM (inactive); in the experiment on RPMI-8226, 15.4 µM (inactive); in the experiment on RXF 393 it was 22.5 µM (inactive). In addition, the GI50 was 21.8 µM (inactive) in the experiment with SF-295; 39.7 µM (inactive) in the experiment on SK-OV-3; 29.9 µM (inactive) in the experiment with SNB-19; 15.6 µM (inactive) with SR; 15.6 µM (inactive) in the experiment on SW-620; 21.3 µM (inactive) with UO-31.
For `O=CC1C(Cl)=Nc2nc3ccccc3n2C1c1ccccc1` (centres undefined), the GI50 in the experiment on ACHN was 17.4 µM (inactive); in the experiment with CAKI-1, 21.4 µM (inactive); in the experiment with EKVX it was 25.2 µM (inactive); in the experiment with HOP-92, 10.4 µM (inactive); in the experiment on K562, 15.2 µM (inactive); in the experiment on KM12, 23.4 µM (inactive). The GI50 with LOX IMVI is 15.5 µM (inactive); in the experiment with NCI-H226, 20.2 µM (inactive); in the experiment with NCI-H460, 55.2 µM (inactive); in the experiment on OVCAR-3 it was 23.2 µM (inactive); in the experiment on OVCAR-8, 21.4 µM (inactive); in the experiment on RPMI-8226, 14 µM (inactive). Moreover, the GI50 in the experiment with RXF 393 was 13.7 µM (inactive); in the experiment with SF-295, > 100 µM (inactive); with SNB-19, 25.5 µM (inactive); with SR, 0.861 µM (active); in the experiment with SW-620, 19.4 µM (inactive); in the experiment on UO-31 it was 14.7 µM (inactive).
As for `CCCCCC(CO)C(O)(C(F)(F)F)C(F)(F)F` (centres undefined), the GI50 in the experiment with ACHN, in the experiment on CAKI-1, in the experiment on EKVX, with HOP-92, in the experiment with K562 and with KM12 was > 10 µM (inactive) in each case. In addition, the GI50 in the experiment with LOX IMVI, in the experiment on NCI-H226, in the experiment with NCI-H460, in the experiment on OVCAR-3, in the experiment with OVCAR-8 and with RPMI-8226 was > 10 µM (inactive) throughout. Further, the GI50 in the experiment with RXF 393, with SF-295, in the experiment with SK-OV-3, in the experiment with SNB-19, in the experiment on SR and in the experiment with SW-620 was > 10 µM (inactive) in each case.

Source of the values: ChEMBL document CHEMBL1201862, “PubChem BioAssay data set” (2004).
